Patent US10316057B2, “Tandem facial amphiphiles” (WISCONSIN ALUMNI RESEARCH FOUNDATION, priority 2011, dated 2019)
Where a name gives a salt, the structure may show the parent alone. Values belong to the compound of their own block, whether it stands above or below them.

Tests used:
[1] = Water solubility and hydrogel formation; type: physicochemical
Method: (§1) TFA-0 forms a hydrogel at concentrations >0.4 wt %, and this compound was not studied further. The other three TFAs are soluble to 5-10 wt % in aqueous media. Critical micelle concentrations (CMC) were determined by monitoring solubilization of a hydrophobic fluorescent dye, […] (Chattopadhyay et al., Anal. Biochem. 1984, 139, 408-412), and the hydrodynamic radii (Rh) of the micelles were determined via dynamic light scattering (DLS). Table 1 compares the data for TFAs with those for DDM, a conventional detergent that is very widely used for MP applications; DDM and the TFAs share maltose as their hydrophilic moieties. CMC values of the three TFAs are smaller than that of DDM, whether CMC is measured in units of mM or wt %.
Several amphiphiles (TFA 1a-10a) were prepared and evaluated for their water solubility and critical micelle concentration (CMC). […] Examples of these TFAs include compounds of Formula VI: […]
These TFAs can be used to prepare hydrogels, which can be used tissue engineering or drug delivery applications. Examples of the generally water-insoluble TFAs include compounds of Formula XX: […]
(§2) Analysis of these TFAs for their CMC values provided the data in Table 3.

[2] = Critical micelle concentration by solubilization of a hydrophobic fluorescent dye; type: physicochemical
Source text: The “Critical Micelle Concentration” (CMC) refers to the concentration of a detergent (e.g., an amphiphile as described herein) in an aqueous solution at which the detergent molecules self-assemble into micelles. Below the CMC, detergents are mostly monomeric; above the CMC, micelle concentration increases linearly with detergent concentration. The CMC is dependent upon many factors and is detergent-specific. The CMC of a detergent can be determined experimentally by measuring the solubilization of a water-insoluble dye or fluorophore while varying the concentration of detergent. A CMC may also be determined by measuring the diminution of the surface tension of an aqueous solution as a function of detergent concentration (CMCs determined by either method correlate with each other). The CMC is determined by extrapolating the plot of solubilization vs. concentration (or surface tension vs. concentration) in the two linear regions above and below the CMC. Where the two lines intersect is the CMC. The CMC can also be determined by the method of Nugebauer, J. M. (1990), Methods in Enzymology, 182:239-253.
as §1, §2

[3] = Hydrodynamic radii of micelles by dynamic light scattering (DLS); type: physicochemical; conditions: 0.5 wt % amphiphile in water, 25° C.; mean ± SD, n = 3
Method: as §1
Each TFA and DDM was dissolved in distilled, deionized (DI) water to obtain 1 mL of a solution containing 0.5 wt % amphiphile. Each solution was filtered through a 0.02 μm filter for DLS measurements. A 100-mW, 532-nm laser (Compass 315M-100, Coherent, Santa Clara, Calif.) illuminated a temperature-controlled glass cell at 25° C. that was filled with a refractive-index matching fluid (decahydronaphthalene, Fisher Scientific, Pittsburgh, Pa.). The scattered light was collected at an angle of 90° for about 30 minutes. Rh values were determined using the integrated dynamics software that analyzes the time scale of the scattered light intensity fluctuations by an autocorrelation function. The autocorrelation functions (ACFs) were obtained using a BI-9000AT digital autocorrelator (Brookhaven Instruments, Holtsville, N.Y.). Measurements were repeated three times.

[4] = system: leucine transporter (LeuT WT); test: LeuT functionality assay ([3H]-Leu binding by scintillation proximity assay); design: species or system Aquifex aeolicus; conditions: higher amphiphile concentration, CMC+0.2 wt %, room temperature
Source text: The wild type of bacterial leucine transporter (LeuT WT) was examined because the functional state of this membrane protein is readily assessed by using a scintillation proximity assay (SPA) (Quick et al., Proc. Natl. Acad. Sci. USA 2007, 104, 3603-3608) to monitor binding of radiolabelled leucine. LeuT was initially extracted with DDM and then diluted with amphiphile-containing solutions to generate final TFA concentrations of 0.04 wt % or 0.2 wt % (residual DDM=0.005 wt %). Control samples had 0.05 wt % or 0.2 wt % DDM (overall, the final concentrations were CMC+0.04 wt % or CMC+0.2 wt %).
The wild type of the leucine transporter (LeuT WT) from Aquifex aeolicus was expressed in Escherichia coli essentially as described by Deckert et al. (Nature 392, 353-358 (1998)). The pET16b-LeuT WT-8His plasmid was kindly provided by Dr. Eric Gouaux, Vollum Institute, Portland Oreg. LeuT WT was extracted from isolated bacterial membranes solubilized with 1% DDM, bound to Ni^2+-affinity Chelating Sepharose Fast Flow resin (GE Healthcare, USA), and eluted in buffer consisted of 20 mM Tris-HCl (pH 8.0), 1 mM NaCl, 199 mM KCl, 0.05% DDM and 300 mM imidazole. […] After incubation at room temperature, at the indicated time points, samples were centrifuged and the protein concentration was determined by absorbance measurements at 280 nm. Concomitantly, [^3H]-Leu binding was determined using scintillation proximity assay (SPA) (Quick and Javitch, Proc. Natl. Acad. Sci. USA 104, 3603-3608 (2007)), with the reaction mixture consisted of 5 μL from the respective samples, 33.3 nM [^3H]-Leu (PerkinElmer, USA) and copper chelate (His-Tag) YSi beads (GE Healthcare). […] Normalized results are expressed as mean±SEM (n=2), as illustrated in FIG. 11 (long-term solubility of LeuT WT incubated in the presence of TFA-1, TFA-3, and DDM at (a) CMC+0.04 wt % or (b) CMC+0.2 wt % at room temperature).

concentration at which a hydrogel forms ([1]; in water): > 0.4 wt %
Structure (SMILES): C[C@H](CCC(=O)NCCCNC(=O)CC[C@@H](C)[C@H]1CC[C@H]2[C@@H]3CC[C@@H]4C[C@H](O[C@@H]5O[C@H](CO)[C@@H](O[C@H]6O[C@H](CO)[C@@H](O)[C@H](O)[C@H]6O)[C@H](O)[C@H]5O)CC[C@]4(C)[C@H]3C[C@H](O[C@@H]3O[C@H](CO)[C@@H](O[C@H]4O[C@H](CO)[C@@H](O)[C@H](O)[C@H]4O)[C@H](O)[C@H]3O)[C@]12C)[C@H]1CC[C@H]2[C@@H]3CC[C@@H]4C[C@H](O[C@@H]5O[C@H](CO)[C@@H](O[C@H]6O[C@H](CO)[C@@H](O)[C@H](O)[C@H]6O)[C@H](O)[C@H]5O)CC[C@]4(C)[C@H]3C[C@H](O[C@@H]3O[C@H](CO)[C@@H](O[C@H]4O[C@H](CO)[C@@H](O)[C@H](O)[C@H]4O)[C@H](O)[C@H]3O)[C@]12C [TFA-0]

CMC ([2]; mean ± SD, n = 3): 0.013 ± 0.0018 mM
CMC (wt %) ([2]; mean ± SD, n = 3): 0.0028 ± 0.00039 wt %
Rh (nm), hydrodynamic radius of micelles measured by dynamic light scattering [3]: 2.0 ± 0.03 nm
Structure (SMILES): CCN(CCCN(CC)C(=O)CC[C@@H](C)[C@H]1CC[C@H]2[C@@H]3CC[C@@H]4C[C@H](O[C@@H]5O[C@H](CO)[C@@H](O[C@H]6O[C@H](CO)[C@@H](O)[C@H](O)[C@H]6O)[C@H](O)[C@H]5O)CC[C@]4(C)[C@H]3C[C@H](O[C@@H]3O[C@H](CO)[C@@H](O[C@H]4O[C@H](CO)[C@@H](O)[C@H](O)[C@H]4O)[C@H](O)[C@H]3O)[C@]12C)C(=O)CC[C@@H](C)[C@H]1CC[C@H]2[C@@H]3CC[C@@H]4C[C@H](O[C@@H]5O[C@H](CO)[C@@H](O[C@H]6O[C@H](CO)[C@@H](O)[C@H](O)[C@H]6O)[C@H](O)[C@H]5O)CC[C@]4(C)[C@H]3C[C@H](O[C@@H]3O[C@H](CO)[C@@H](O[C@H]4O[C@H](CO)[C@@H](O)[C@H](O)[C@H]4O)[C@H](O)[C@H]3O)[C@]12C [TFA-2]

CMC ([2]; mean ± SD, n = 3): 0.007 ± 0.0023 mM
CMC (wt %) ([2]; mean ± SD, n = 3): 0.0016 ± 0.00051 wt %
Rh (nm), hydrodynamic radius of micelles measured by dynamic light scattering [3]: 3.3 ± 0.12 nm
maintaining LeuT WT function over 12 days [4]: matched DDM at the lower concentration
Structure (SMILES): CCCCN(CCCN(CCCC)C(=O)CC[C@@H](C)[C@H]1CC[C@H]2[C@@H]3CC[C@@H]4C[C@H](O[C@@H]5O[C@H](CO)[C@@H](O[C@H]6O[C@H](CO)[C@@H](O)[C@H](O)[C@H]6O)[C@H](O)[C@H]5O)CC[C@]4(C)[C@H]3C[C@H](O[C@@H]3O[C@H](CO)[C@@H](O[C@H]4O[C@H](CO)[C@@H](O)[C@H](O)[C@H]4O)[C@H](O)[C@H]3O)[C@]12C)C(=O)CC[C@@H](C)[C@H]1CC[C@H]2[C@@H]3CC[C@@H]4C[C@H](O[C@@H]5O[C@H](CO)[C@@H](O[C@H]6O[C@H](CO)[C@@H](O)[C@H](O)[C@H]6O)[C@H](O)[C@H]5O)CC[C@]4(C)[C@H]3C[C@H](O[C@@H]3O[C@H](CO)[C@@H](O[C@H]4O[C@H](CO)[C@@H](O)[C@H](O)[C@H]4O)[C@H](O)[C@H]3O)[C@]12C [TFA-3]

CMC ([2]; Example 4, Table 3): 0.014 mM
CMC (wt. %) ([2]; Example 4, Table 3): 0.0030 wt. %
Structure (SMILES): CC(CCC(=O)N(C)CCCN(C)C(=O)CCC(C)C1CCC2C3CCC4CC(OC5OC(CO)C(OC6OC(CO)C(O)C(O)C6O)C(O)C5O)CCC4(C)C3CC(OC3OC(CO)C(OC4OC(CO)C(O)C(O)C4O)C(O)C3O)C12C)C1CCC2C3CCC4CC(OC5OC(CO)C(OC6OC(CO)C(O)C(O)C6O)C(O)C5O)CCC4(C)C3CC(OC3OC(CO)C(OC4OC(CO)C(O)C(O)C4O)C(O)C3O)C12C (centres unmarked) [TFA-4a]

water solubility ([1]; Example 4, under the conditions evaluated): insoluble
Structure (SMILES): CC(CCC(=O)NCc1ccc(CNC(=O)CCC(C)C2CCC3C4CCC5CC(OC6OC(CO)C(OC7OC(CO)C(O)C(O)C7O)C(O)C6O)CCC5(C)C4CC(OC4OC(CO)C(OC5OC(CO)C(O)C(O)C5O)C(O)C4O)C23C)cc1)C1CCC2C3CCC4CC(OC5OC(CO)C(OC6OC(CO)C(O)C(O)C6O)C(O)C5O)CCC4(C)C3CC(OC3OC(CO)C(OC4OC(CO)C(O)C(O)C4O)C(O)C3O)C12C (centres unmarked) [TFA-6a]

CMC ([2]; Example 4, Table 3): 0.013 mM
CMC (wt. %) ([2]; Example 4, Table 3): 0.0028 wt. %
Structure (SMILES): CCN(CCCN(CC)C(=O)CCC(C)C1CCC2C3CCC4CC(OC5OC(CO)C(OC6OC(CO)C(O)C(O)C6O)C(O)C5O)CCC4(C)C3CC(OC3OC(CO)C(OC4OC(CO)C(O)C(O)C4O)C(O)C3O)C12C)C(=O)CCC(C)C1CCC2C3CCC4CC(OC5OC(CO)C(OC6OC(CO)C(O)C(O)C6O)C(O)C5O)CCC4(C)C3CC(OC3OC(CO)C(OC4OC(CO)C(O)C(O)C4O)C(O)C3O)C12C (centres unmarked) [TFA-7a]

CMC ([2]; Example 4, Table 3): 0.01 mM
CMC (wt. %) ([2]; Example 4, Table 3): 0.0022 wt. %
Structure (SMILES): CCCCN(CCCN(CCCC)C(=O)CCC(C)C1CCC2C3CCC4CC(OC5OC(CO)C(OC6OC(CO)C(O)C(O)C6O)C(O)C5O)CCC4(C)C3CC(OC3OC(CO)C(OC4OC(CO)C(O)C(O)C4O)C(O)C3O)C12C)C(=O)CCC(C)C1CCC2C3CCC4CC(OC5OC(CO)C(OC6OC(CO)C(O)C(O)C6O)C(O)C5O)CCC4(C)C3CC(OC3OC(CO)C(OC4OC(CO)C(O)C(O)C4O)C(O)C3O)C12C (centres unmarked) [TFA-9a]

CMC ([2]; Example 4, Table 3): 0.004 mM
CMC (wt. %) ([2]; Example 4, Table 3): 0.0009 wt. %
Structure (SMILES): CCCCCN(CCCN(CCCCC)C(=O)CCC(C)C1CCC2C3CCC4CC(OC5OC(CO)C(OC6OC(CO)C(O)C(O)C6O)C(O)C5O)CCC4(C)C3CC(OC3OC(CO)C(OC4OC(CO)C(O)C(O)C4O)C(O)C3O)C12C)C(=O)CCC(C)C1CCC2C3CCC4CC(OC5OC(CO)C(OC6OC(CO)C(O)C(O)C6O)C(O)C5O)CCC4(C)C3CC(OC3OC(CO)C(OC4OC(CO)C(O)C(O)C4O)C(O)C3O)C12C (centres unmarked) [TFA-10a]
